Source: patent US20200338044A1 (PCI Biotech AS, priority 2016, published 2020)
Entries after “also recorded” stand apart in the source; their conditions may differ.

Assays:
[1] = test system: TFK-1 cell line; assay: Cytotoxicity of gemcitabine without PCI, MTT assay; assay type: cell-based, human
Text: The cell lines used were TFK-1 and EGI-1, both were obtained from the Department of Cancer Prevention, The Norwegian Radium Hospital, Oslo, Norway. TFK-1 is a human papillary bile duct adenocarcinoma cell line and EGI-1 is a poorly differentiated human bile duct adenocarcinoma cell line. Both cell lines originate from extrahepatic tumours (Saijyo et al., 1995, Tohoku J. Exp. Med., 177:61-71; EGI-1—Cell LINCS Library of Intergrated network-based Cellular Signatures. Available from the website having the URL beginning with “lincs” and ending with “.hms.harvard.edu/db/cells/50181/”), but are quite different both morphologically and physiologically (Xu et al., 2013, Clinical Cancer Research, January 1; 19(1):118-27; Pignochino et al., 2010, BMC Cancer, 10:631).
The MTT method (tetrazolium dye reduction) was performed 48 h after light exposure with Lumisource. The culture medium was removed and cells were incubated in medium containing 0.25 mg/ml MTT (Sigma) for approximately 3 hours before replacement with 100 μl of 99% dimethylsulfoxide (Sigma). The 96 well plates were set on a shaker for 5 minutes before absorbance was measured at 570 nm with a power wave XS2 (Biotek, VT, USA). Wells without cells incubated with MTT-medium only were used for blank subtraction.

[2] = test system: EGI-1 cell line; assay: Cytotoxicity of gemcitabine without PCI, MTT assay; assay type: cell-based, human
Text: The cell lines used were TFK-1 and EGI-1, both were obtained from the Department of Cancer Prevention, The Norwegian Radium Hospital, Oslo, Norway. TFK-1 is a human papillary bile duct adenocarcinoma cell line and EGI-1 is a poorly differentiated human bile duct adenocarcinoma cell line. Both cell lines originate from extrahepatic tumours (Saijyo et al., 1995, Tohoku J. Exp. Med., 177:61-71; EGI-1-Cell LINCS Library of Intergrated network-based Cellular Signatures. Available from the website having the URL beginning with “[…] ending with “.hms.harvard.edu/db/cells/50181/”), but are quite different both morphologically and physiologically (Xu et al., 2013, Clinical Cancer Research, January 1; 19(1):118-27; Pignochino et al., 2010, BMC Cancer, 10:631).

[3] = test system: TFK-1 cell line; assay: PCI with gemcitabine, MTT cytotoxicity assay; assay type: cell-based, human
Procedure: (§1) Di (monoethanolammonium) meso-tetraphenyl chlorin disulfonate (TPCS2a/Amphinex®) was provided by PCI Biotech AS (Lysaker, Norway). Amphinex batch number: FAMP 1002. TPCS2a (in 3% polysorbate 80, 2.8% mannitol, 50 mM Tris pH 8.5) stock solution (0.4 mg/ml) was kept at 4° C. in aliquots and light protected. All work with the photosensitizer was performed under subdued light.
(§2) Illumination of the cells was performed by using Lumisource (PCI Biotech, Oslo). This lamp consists of four standard light tubes (18 W/tube, Osram L 18/67), which emit blue light with a main peak at approximately 435 nm and was used for excitation of TPCS2a. The irradiance emitted from the blue light source was 12 mW/cm^2 and varied less than 10% across the illumination area (765 cm^2). The light source was air-cooled during light exposure to keep the irradiance stable and prevent cells from hyperthermia.
(§3) Cells were seeded in 96-well or 6-well plates (Nunclon, Nunc, Roskilde, Denmark) and allowed to attach at 37° C. overnight. […]
(§4) The MTT method (tetrazolium dye reduction) was performed 48 h after light exposure with Lumisource. […] The 96 well plates were set on a shaker for 5 minutes before absorbance was measured at 570 nm with a power wave XS2 (Biotek, VT, USA). […]

[4] = test system: EGI-1 cell line
Procedure: as §1, §2, §3, §4

[5] = test system: TFK-1 cells; assay: Colony formation assay after PCI treatment; assay type: cell-based, human
Procedure: Cells (25 000 cells/well) were seeded out in 6 well plates (Nunc) and allowed to adhere overnight and subjected to photochemical treatment described above. The cells were placed in the incubator and the culture medium was replaced with fresh culture medium after 3 days incubation. […] Subsequently, cells were washed in H2O and then dried before being evaluated by visual inspection.

[6] = test system: NCI-H460 human lung cancer tumour cells; assay: Tumour growth of subcutaneous NCI-H460 xenografts after PCI with gemcitabine; assay type: in vivo, Nude (nu/nu) athymic mice; conditions: for No. of animals alive at the end of study: 10 animals at start
Procedure: Nude (nu/nu) athymic mice (female, CD-1 nu/nu strain, at least 6 weeks old) were used which have been used extensively to generate human tumour xenografts and remain the experimental method of choice for testing anti-tumour efficacy of new compounds prior to administration in man. The route of administration of the test substances was intravenous. The dose of Amphinex® was 5 mg/kg, based on earlier mouse studies performed by PCI Biotech AS and collaborators.
There were 6 treatment groups with 10 mice per group. Mice were injected subcutaneously with 7×10^7 cells/mL NCI-H460 tumour cells to allow selection of optimal tumours for inclusion in the study. Tumours of the appropriate size were allocated to the various treatment groups.
Amphinex® was administered intravenously via a tail vein, using a dose volume of 4 mL/kg.
Human NCI-H460 non-small cell lung cancer cells (American Type Culture Collection [ATCC], Maryland, USA, or the European Collection of Cell Cultures [ECACC], Porton Down, UK) were harvested from sub-confluent cultures growing in vitro and the number of viable cells determined. Cells were then re-suspended in sterile phosphate buffered saline (PBS) at a concentration of approximately 7×10^7 cells/mL. Nude (nu/nu) athymic mice were injected subcutaneously in the right flank with approximately 7×10^6 NCI-H460 cells in a volume of 0.1 mL. Animals were examined regularly for the appearance of tumours. When measurable tumours had established in the majority of mice, animals were assigned into 6 treatment groups with a target of up to 10 mice per group. Mice received an intravenous injection of Amphinex when the tumours had reached a size such that the tumour volume was approximately in the range 100 to 150 mm^3 72 hours later.
For tumour illumination each animal was restrained, one at a time, in a metal restraint which allows only the lower flank area, i.e. tumour area plus a 2 mm diameter surrounding area, to be exposed. A 650 nm diode laser (TWI Diode Laser, Quanta System, Italy) was then used to expose the tumour tissue to a light dose of 15 J/cm^2, with a fluence rate of 90 mW/cm^2. Each animal had their tumour exposed to the laser for approximately 167 s, to give the required dose of 15 J/cm^2.
Tumour size was measured at least twice weekly using digital callipers for up to 4 weeks following illumination or until the tumour size (as specified in the UK Home Office Licence) or other clinical signs necessitated removal of that mouse from the study. Tumour dimensions were recorded (length and width), and tumour volumes calculated using the formula (W^2×L)/2, where W is the […] tumour dimension and L is the longest. Animals were terminated if the tumour size had become excessive or any adverse effects were noted.
The tumour dimensions measured over the period of the study—length (L, long) and width (W, short) in mm, were recorded and kept as raw data. The mean tumour volumes on the first day of treatment were reported for each group. Calculations of relative tumour volumes and plots of mean tumour growth curves were performed. Body weight data were also obtained.

[7] = 4 hours exposure, up to 1 mM tested, data not shown
[8] = gemcitabine 100 nM alone, no PCI

Compound: Nc1ccn([C@@H]2O[C@H](CO)[C@@H](O)C2(F)F)c(=O)n1 [Gemcitabine, 4-amino-1-(2-deoxy-2,2-difluoro-β-D-erythro-pentofuranosyl)pyrimidin-2(1H)-on]
- cytotoxic effect [1, 7]: only a very modest cytotoxic effect
- cytotoxicity ([1]; 72 hours exposure, 3 μM gemcitabine): about 50%
- cell killing (>90% level) ([2]; 3 000 nM gemcitabine without PCI, 72 hours): this level of cell killing was not obtained
- cytotoxic effect [2, 7]: only a very modest cytotoxic effect
- sensitivity to gemcitabine (cytotoxicity) ([2]; 72 hours exposure, highest dose employed (up to 3 μM)): insensitive
- cytotoxic effect [3, 8]: about 50%
- effect on cell survival [4, 8]: no effect on cell survival
- colony forming ability ([5]; gemcitabine 10 nM, PCI illumination time 140 s): substantial colony formation was observed
- colony forming ability ([5]; gemcitabine 33 nM): some colony formation could be observed
- colony forming ability ([5]; gemcitabine 100 nM): unable to form colonies
- colony forming ability ([5]; gemcitabine 330 nM): unable to form colonies
- effect on tumour growth ([6]; gemcitabine 200 mg/kg i.v., PCI: Amphinex 5 mg/kg i.v. + 650 nm 15 J/cm^2): no
- effect on tumour growth ([6]; gemcitabine 200 mg/kg i.v., PCI: Amphinex 5 mg/kg i.v. + 650 nm 15 J/cm^2, listed as gemcitabine): neither the photochemical treatment alone (PCI alone) nor gemcitabine alone had a significant effect on tumour growth
- No. of animals alive at the end of study ([6]; gemcitabine 200 mg/kg): 5
- effect on tumour growth ([6]; gemcitabine 400 mg/kg i.v., PCI: Amphinex 5 mg/kg i.v. + 650 nm 15 J/cm^2): only a very modest; also recorded: neither the photochemical treatment alone (PCI alone) nor gemcitabine alone (Gemcitabine 400 mg/kg) had a significant effect on tumour growth
- No. of animals alive at the end of study ([6]; gemcitabine 400 mg/kg): 6

Compound: Di (monoethanolammonium) meso-tetraphenyl chlorin disulfonate [PCI alone]
- effect on cell survival ([3]; photochemical treatment alone, 0.4 μg/ml TPCS2a + blue light): only a modest effect on cell survival
- cells killed ([4]; photochemical treatment alone, highest light dose): about 50%
- colony forming ability ([5]; PCI alone, illumination time 140 s): still had the ability to form colonies
- No. of animals alive at the end of study ([6]; Amphinex 5 mg/kg + laser, no gemcitabine): 2
- effect on tumour growth ([6]; Amphinex 5 mg/kg i.v. + laser 15 J/cm^2, without gemcitabine): virtually no effect; also recorded: neither the photochemical treatment alone (PCI alone) nor gemcitabine alone (Gemcitabine 400 mg/kg) had a significant effect on tumour growth
